Structures can show the parent of a compound that is named as a salt. Where two headings read alike, the source gives them in different places.
Tests used:
[1] = system: transgenic zebrafish expressing a fluorescent vascular reporter gene; conditions: Tran et al., 2007, cited from earlier work; for penetration of embryos: highly hydrophilic compounds
Xenopus embryos = conditions: for scored in the phenotypic Xenopus screens / Lethality (NF) / Onset (NF): 20 μM; for scored in the phenotypic Xenopus screens: known antiangiogenic compounds; for Lethality (NF): compounds causing edema, treatment from stage 31, scored to stage 47; for Lethality (NF) / Onset (NF): 1% DMSO; for Type of edema Periocular: * = causing bulging eyes, # = bilateral, causing narrow-set eyes; for Lethality: — = no stage of lethality given; for Type of edema Ventral: ‡ = edemas also detected in the gut; for Embr. phen.: embryonic phenotype in the primary screen; for Onset (NF): onset of edema, treatment from stage 31, Nieuwkoop & Faber stage
In short: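 Stage 31 (37 hpf) Xenopus embryos, five per well, exposed to 20 µM compound in 1% DMSO at 23 °C for 4 days. Edema, lethality and other external phenotypes were scored daily by two investigators at stages 39, 41, 45 and 47.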

HUVEC [2] = experiment: HUVEC cell proliferation assay; assay type: cell-based, human; conditions: for activity at 10 µM: Homo sapiens, HUVEC, 48 h
Protocol: (§1) Human umbilical vein endothelial cells (HUVEC) were purchased from PromoCell. […] HUVEC and LEC were cultured in endothelial basal medium EBM (Cambrex) supplemented with 20% fetal bovine serum (Invitrogen), antibiotic-antimycotics (100 U/ml penicillin, 100 μg/ml streptomycin, 250 ng/ml amphotericin; Invitrogen). 2 mM L-glutamine (Invitrogen), 10 μg/ml hydrocortisone (Fluka) and 25 μg/ml N^6,2′-O-dibutyryladenosine 3′,5′-cyclic monophosphate sodium salt (Fluka) for up to eleven passages.
(§2) The intensity of fluorescence, which is proportional to the number of viable cells, was measured using a microplate reader (SpectraMax Gemini EM; Molecular Devices). The chemical treatments were performed in five replicates.
(§3) The cell proliferation assays were performed by treating the endothelial cell cultures with compounds at a screening dose of 10 μM in 0.1% DMSO for 48 hours (FIG. 6a; Table 10).

LEC [3] = experiment: LEC cell proliferation assay; assay type: cell-based, human; conditions: for activity at 10 µM: Homo sapiens, 48 h
Protocol: as §1, §2, §3

[4] = system: blood vessel development and/or lymphangiogenesis in Xenopus embryos; assay type: in vivo, Xenopus laevis; conditions: for blood vessel development phenotype (apj expression, in words): 20 μM from stage 31, fixed at stage 35/36; for lymph vessel development phenotype (vegfr3 expression, in words): 20 μM from stage 31, fixed at stage 42; for ALH phenotype: anterior lymph heart; for ALS phenotype: anterior lymph sac; for ISV phenotype: intersomitic vessels; for PCV phenotype: posterior cardinal vein; for PLV phenotype: posterior lymph vessels; for VVN phenotype: vitelline vein network
In short: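 Albino Xenopus embryos treated at 20 μM final (from 10-mM DMSO stocks) in screening medium, 7 per well, from stage 31 (37 hpf) to stage 35/36 (50 hpf) or 42 (80 hpf). Fixed in 4% paraformaldehyde and scored by whole-mount in situ hybridization: vasculogenesis and intersomitic vein angiogenesis at stage 35/36, lymph vessel development at stage 42.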

HUVEC [5] = experiment: HUVEC tube formation assay; assay type: cell-based, human; conditions: for activity at 1 µM: Homo sapiens, HUVEC
Protocol: as §1
(§4) The effect of the selected chemicals on the formation of tube-like structures was performed as follows. […] After overnight incubation at 37° C. the treated cell cultures were fixed with 4% paraformaldehyde. Each chemical treatment was performed in triplicate and the experiment was repeated at least three times. Three representative images of hotspots with tube-like structures were taken per well using a digital camera (AxioCam MRm, Carl Zeiss) mounted on an inverted microscope (Axiovert 200M, Carl Zeiss). The length of the tube-like structures was measured using the IPLab software (BD Biosciences). For each experimental condition, results are represented as average total tube length (μm) per area (three image fields).
(§5) The effects of the selected compounds on endothelial tube formation was assessed after over treatment of LEC and HUVEC cultures at a compound concentration of 1 μM in 0.1% DMSO. The length of the tube-like structures was measured using the IPLab software.

LEC [6] = experiment: cells; assay type: cell-based, human; conditions: for activity at 1 µM: Homo sapiens
Protocol: as §1, §4, §5

Row | SMILES | Lethality (NF) (Xenopus embryos) | Type of edema Periocular (Xenopus embryos; embryonic stage) | Lethality (Xenopus embryos; embryonic stage) | HUVEC proliferation (HUVEC [2]; 10 μM in 0.1% DMSO, 48 hours) | LEC proliferation (LEC [3]; 10 μM in 0.1% DMSO, 48 hours) | lymph vessel development phenotype (vegfr3 expression, in words) [4] | ALH phenotype ([4]; Xenopus embryos) | ALS phenotype ([4]; Xenopus embryos) | ISV phenotype ([4]; Xenopus embryos) | PCV phenotype ([4]; Xenopus embryos) | PLV phenotype ([4]; Xenopus embryos) | VVN phenotype ([4]; Xenopus embryos) | Embr. phen. (Xenopus embryos) | Type of edema Pericordial (Xenopus embryos; embryonic stage) | Onset (NF) (Xenopus embryos) | HUVEC tube formation (HUVEC [5]; 1 μM in 0.1% DMSO, overnight) | LEC tube formation (LEC [6]; 1 μM in 0.1% DMSO, overnight) | further results
1 | CN(C)c1ccc(O)c2c1C[C@H]1C[C@H]3[C@H](N(C)C)C(O)=C(C(N)=O)C(=O)[C@@]3(O)C(O)=C1C2=O [minocycline hydrochloride] | – | – | – | – | – | – | – | – | – | – | – | – | – | – | – | – | – | penetration of embryos [1]: poorly penetrate embryos
2 | O=C1CCC(N2C(=O)c3ccccc3C2=O)C(=O)N1 (centres unmarked) [thalidomide] | – | – | – | – | – | – | – | – | – | – | – | – | – | – | – | – | – | penetration of embryos [1]: poorly penetrate embryos
3 | COc1cc2ncnc(Nc3cccc(Cl)c3)c2cc1OC [Tyrphostin AG 1478, N-(3-Chlorophenyl)-6,7-dimethoxy-4-quinazolinamine] | 46 NF | 45 embryonic stages according to Nieuwkoop and Faber (NF) | 46 embryonic stages according to Nieuwkoop and Faber (NF) | – | – | – | – | – | – | – | – | – | – | – | – | – | – | scored in the phenotypic Xenopus screens (Xenopus embryos): active; Cardiac phenotype (Xenopus embryos; embryonic stage, ¶ = the heart chambers were enlarged): 45¶ embryonic stages according to Nieuwkoop and Faber (NF); Type of edema Ventral (Xenopus embryos; embryonic stage): 45 embryonic stages according to Nieuwkoop and Faber (NF); recovery as antiangiogenic compound in the transgenic zebrafish screen [1]: recovery
4 | Nc1ccc2c3c(cccc13)C(=O)NC2=O [4-Amino-1,8-naphthalimide] | – | 41/42* | – | + (+, moderate promotion (>115-150% of control).) | O (O, inactive or marginal effects (85-115% of control);) | lymphangiogenesis was largely suppressed | stunted | impaired | normal | normal | hypoplastic | hyperplastic | EDE | 41/42 | 41/42 | O (O, inactive or marginal effects (85-115% of control);) | − (−, moderate inhibition (50-85% of control):) | blood vessel development phenotype (apj expression, in words) [4]: hyperplasia of the VVN, while ISV angiogenesis occurred unaffected; Type of edema Proctodeal (Xenopus embryos; embryonic stage): 47 embryonic stages according to Nieuwkoop and Faber (NF); effect on LEC tube formation (in words) (LEC [6]; 1 μM in 0.1% DMSO): preferentially blocked tube formation in LEC rather than HUVEC cultures
5 | Nc1ncnc2c1c(-c1ccc(Oc3ccccc3)cc1)cn2C1CCCC1 [7-Cyclopentyl-5-(4-phenoxy)phenyl-7H-pyrrolo[2,3-d]pyrimidin-4-ylamine] | 45 NF | – | 45 embryonic stages according to Nieuwkoop and Faber (NF) | O (O, inactive or marginal effects (85-115% of control);) | O (O, inactive or marginal effects (85-115% of control);) | lymphangiogenesis was strongly suppressed | impaired | impaired | stunted | normal | hypoplastic | normal | EDE | 41/42 | 41/42 | − − (− −, strong inhibition (<50% of control);) | − − (− −, strong inhibition (<50% of control);) | blood vessel development phenotype (apj expression, in words) [4]: interfered with angiogenic ISV sprouting but not with VVN assembly; Type of edema Pronephric (Xenopus embryos; embryonic stage): 41/42
6 | COc1cc2c(cc1O)CC[C@@H]1[C@@H]2CC[C@]2(C)[C@@H](O)CC[C@@H]12 [2-methoxyestradiol, 2-Hydroxyestradiol 2-methyl ether] | 33/34 | – | 33/34 | O (O, inactive or marginal effects (85-115% of control);) | − (−, moderate inhibition (50-85% of control):) | – | – | – | impaired | hypoplastic | – | hypoplastic | EDE | 33/34 | 33/34 | − − (− −, strong inhibition (<50% of control);) | − (−, moderate inhibition (50-85% of control):) | effect on LEC proliferation (in words) (LEC [3]; 10 μM in 0.1% DMSO, 48 hours): inhibited preferentially LEC proliferation; scored in the phenotypic Xenopus screens (Xenopus embryos): active; HUVEC tube formation (tube length) (HUVEC [5]; 1 μM in 0.1% DMSO): 40 % of control; effect on HUVEC tube formation (in words) (HUVEC [5]; 1 μM in 0.1% DMSO): blocked tube formation preferentially in HUVEC cultures; LEC tube formation (tube length) (LEC [6]; 1 μM in 0.1% DMSO): 80 % of control
7 | COc1cc([C@@H]2c3cc4c(cc3[C@H](O)[C@H]3COC(=O)[C@H]23)OCO4)cc(OC)c1OC [Podophyllotoxin] | 41/42 | – | 41/42 | – | – | – | – | – | impaired | hypoplastic | – | hypoplastic | – | 39/40 | 39/40 | – | – | activity at 10 µM (HUVEC [2]; read-out: HUVEC proliferation, 10 μM in 0.1% DMSO, 48 hours): 65 to 82%; activity at 10 µM (LEC [3]; read-out: LEC proliferation, 10 μM in 0.1% DMSO, 48 hours): 65 to 82%; activity at 1 µM (HUVEC [5]; read-out: HUVEC tube formation): < 50%; activity at 1 µM (HUVEC [5]; read-out: HUVEC tube formation (tube length)): < 35%; activity at 1 µM (LEC [6]; read-out: LEC tube formation): < 50%; activity at 1 µM (LEC [6]; read-out: LEC tube formation (tube length)): < 35%
8 | CC(C)COC(=O)OCN1C(=O)CN(CCN2CC(=O)N(COC(=O)OCC(C)C)C(=O)C2)CC1=O [Sobuzoxane, 4,4′-(1,2-Ethanediyl)bis(1-isobutoxycarbonyloxymethyl-2,6-piperazinedione)] | 47 NF | 45* embryonic stages according to Nieuwkoop and Faber (NF) | 47 embryonic stages according to Nieuwkoop and Faber (NF) | + (+, moderate promotion (>115-150% of control).) | + (+, moderate promotion (>115-150% of control).) | discontinuatous, dysplastic lymphatic vessels | dysplastic | dysplastic | – | – | hypoplastic | – | – | – | 41/42 | – | – | activity at 10 µM (HUVEC [2]; 10 μM in 0.1% DMSO, 48 hours, read-out: HUVEC proliferation): 115 to 150%; activity at 10 µM (LEC [3]; 10 μM in 0.1% DMSO, 48 hours, read-out: LEC proliferation): 115 to 150%; Blood vessel phenotype ([4]; Xenopus embryos): normal; Type of edema Proctodeal (Xenopus embryos; embryonic stage): 45 embryonic stages according to Nieuwkoop and Faber (NF); Type of edema Pronephric (Xenopus embryos; embryonic stage): 41/42; Type of edema Ventral (Xenopus embryos; embryonic stage): 45 embryonic stages according to Nieuwkoop and Faber (NF); activity at 1 µM (HUVEC [5]; 1 μM in 0.1% DMSO, overnight, read-out: HUVEC tube formation): 85 to 115%; activity at 1 µM (HUVEC [5]; 1 μM in 0.1% DMSO, read-out: HUVEC tube formation (tube length)): 85 to 115%; activity at 1 µM (LEC [6]; 1 μM in 0.1% DMSO, overnight, read-out: LEC tube formation): 85 to 115%; activity at 1 µM (LEC [6]; 1 μM in 0.1% DMSO, read-out: LEC tube formation (tube length)): 85 to 115%
